Assay results: patent publication US9463256B2, “Pretargeting kit, method and agents used therein” (KONINKLIJKE PHILIPS N.V., priority 2010, dated 2016)

Legend:
[1] = Second order kinetic constants of the reactions between CC49-TCO constructs and ^177Lu-28; assay type: physicochemical; conditions: for Second order kinetic constant: new TCOs conjugated to CC49, reaction with ^177Lu-28, procedures of Example 5; for Second order kinetic constant, PEG10 Spacer / Second order kinetic constant, No Spacer: TCO conjugated to CC49, reaction with ^177Lu-28 in PBS, pH 7.4 at 37° C.
Description: Typically, 1 mg CC49 (5 mg/mL solution in PBS) was modified with 0.6 molar (for kinetic measurements) or 10 molar eq. (for in vivo studies) of TCO-NHS constructs in a total volume of 250 μL PBS. The pH was adjusted to 9 with 1 M sodium carbonate buffer. The reactions were carried out under agitation for 30 min at RT in the dark. Subsequently, the TCO-modified mAbs were extensively washed with PBS using Amicon Ultra-15 centrifugal devices. The numbers of TCO groups per antibody were determined with a tetrazine titration, outlined below.
Tetrazine-DOTA 28 was radiolabeled with carrier-added ^177Lu. mAb (25 μg) modified with ca. 0.6 molar eq. TCO was reacted with 3 molar eq. of ^177Lu-28 (0.5 nM). mAb (25 μg) modified with ca. 10 molar eq. TCO was reacted with 15 molar eq. of ^177Lu-28 (2.5 nM). The reactions were carried out in 50 μL PBS pH 7.4 at 37° C. for 10 min. The reaction mixtures were analyzed by SDS-PAGE and phosphor imager and the reaction yields were determined from the radioactivity in the bands corresponding to the mAb. The counts were quantified with AIDA Image Analyzer software (Raytest).
Tetrazine-DOTA 28 was radiolabeled with carrier-added ^177Lu at a specific activity of 3 MBq/μg. ^177Lu-28 (33 nM) was reacted with increasing concentrations of CC49 modified with 1 eq. of TCO (0.33, 1, and 1.67 μM) in 200 μL PBS, pH 7.4 at 37° C. for 5 min. At selected times (15, 30, 45, 60, 90, 120, 180, and 300 sec) a 20 μL sample was withdrawn and quenched with tetrazine 6 (FIG. 5; described in Rossin et al. Angew Chem Int Ed 2010, 49, 3375) (1.5 μL, 5 mg/mL in DMF). Aliquots of each mixture were analyzed by SDS-PAGE and phosphor imager and the cycloaddition yields were determined from the radioactivity in the bands corresponding to the mAb. The counts were quantified with AIDA Image Analyzer software (Raytest).
The newly synthesized TCO constructs were evaluated with respect to their reactivity towards tetrazine 28. The procedures are described in Example 5.

LS174T tumor model [2] = assay: Biodistribution experiments in tumor bearing mice pretargeted with CC49-TCO constructs; assay type: in vivo, Nude female Balb/C mice; conditions: for ^177Lu-tetrazine in Blood / ^177Lu-tetrazine in Bone / ^177Lu-tetrazine in Brain / ^177Lu-tetrazine in Heart / ^177Lu-tetrazine in Kidney / ^177Lu-tetrazine in Liver / ^177Lu-tetrazine in Lung / ^177Lu-tetrazine in Muscle / ^177Lu-tetrazine in Spleen / ^177Lu-tetrazine in Tumor: 3 h after injection
Description: (§1) LS174T tumor model. The human colon cancer cell line LS174T was obtained from the ATCC and maintained in Eagle's minimal essential medium (Sigma) supplemented with 10% heat inactivated fetal calf serum (Gibco), penicillin (100 U/mL), streptomycin (100 μg/mL) and 2 mM Glutamax. Nude female Balb/C mice (20-25 g body weight, Charles River Laboratories) were inoculated subcutaneously with 5×10^6 cells in 100 μL sterile PBS.
Dual isotope biodistribution experiments were performed by injecting tumor bearing mice (n=3) intravenously with ^125I-labeled CC49-TCO constructs with and without PEG10 spacer (100 μg/100 μL per mouse, ca. […] 0.8 MBq). Three hours after tetrazine administration, the animals were anesthetized with isoflurane and sacrificed by cervical dislocation. Blood was withdrawn by heart puncture and organs and tissues of interest were harvested, blotted dry and weighed. The radioactivity of the samples was measured in a γ-counter along with standards to determine the % ID/gram. The energy windows were set to 10-80 keV and 100-510 keV for ^125I and ^111In, respectively.

LS174T tumor model [3] = assay: Biodistribution of ^177Lu-tetrazine 28 in tumor bearing mice pretargeted with CC49-TCO 44b; assay type: in vivo, Nude female Balb/C mice; conditions: 3 h after injection, 50 h after ^125I-CC49-TCO-44b, two doses of clearing agent
Description: as §1
Tumor-bearing mice (see Methods; 100 mm^3 tumor size; n=4) were injected with ^125I-CC49 functionalized with 7.5 TCO 44b groups (100 μg/mouse, ca. 0.2 MBq). Thirty and 48 hours post-mAb injection the mice received one dose of clearing agent (galactose-MSA-tetrazine, 160 μg/dose) followed 2 h later by ^177Lu-tetrazine 28 (10 eq. with respect to the mAb, ca. 0.5 MBq). Three hours post-tetrazine injection the mice were anesthetized and sacrificed by cervical dislocation, blood was withdrawn by heart puncture, organs and tissues of interest were harvested and blotted dry. All collected samples were weighed and added with 1 mL PBS. The sample radioactivity was measured in a gamma-counter with a dual-isotope protocol (10-80 keV window for ^125I and 155-380 keV window for ^177Lu) along with standards to determine the percent injected dose per gram tissue (% ID/g).

[4] = 1 day pretargeting with CC49-23a
[5] = 4 days pretargeting with CC49-23a

O=C(COC1CC/C=C/CCC1)ON1C(=O)CCC1=O (single isomer, unassigned) [44b, (E-Minor)-2,5-dioxopyrrolidin-1-yl 2-(cyclooct-4-en-1-yloxy)acetate]
Second order kinetic constant [1]: 134800 ± 997 M⁻¹ s⁻¹

CC1(CC(=O)ON2C(=O)CCC2=O)CC/C=C/CCC1 (centres unmarked) [compound 58, (E-Major,minor)-2,5-Dioxopyrrolidin-1-yl 2-(1-methylcyclooct-4-en-1-yl)acetate]
Second order kinetic constant [1]: 323500 ± 43320 M⁻¹ s⁻¹

CC(C)(OC1CC/C=C/CCC1)C(=O)ON1C(=O)CCC1=O (single isomer, unassigned) [49b, (E-Minor)-2,5-dioxopyrrolidin-1-yl 2-(cyclooct-4-en-1-yloxy)-2-methylpropanoate]
Second order kinetic constant [1]: 148500 ± 12040 M⁻¹ s⁻¹

O=C(CCOCCOCCOCCOCCOCCOCCOCCOCCOCCOCCOCCOCCNC(=O)c1ccc(NC(=O)OC2CC/C=C/CCC2)cc1)ON1C(=O)CCC1=O (centres unmarked) [27a, (E-major)-2,5-dioxopyrrolidin-1-yl 1-(4-(((cyclooct-4-en-1-yloxy)carbonyl)amino)phenyl)-1-oxo-5,8,11,14,17,20,23,26,29,32,35,38-dodecaoxa-2-azahentetracontan-41-oate]
Second order kinetic constant, PEG10 Spacer [1]: (27a) 11030 ± 250 M^−1s^−1

O=C(ON1C(=O)CCC1=O)C(OC1CC/C=C/CCC1)c1ccccc1 (single isomer, unassigned) [46a, (E-Major)-2,5-dioxopyrrolidin-1-yl 2-(cyclooct-4-en-1-yloxy)-2-phenyl acetate]
Second order kinetic constant [1]: 28630 ± 1590 M⁻¹ s⁻¹

O=C([O-])CN1CCN(CC(=O)[O-])CCN(CC(=O)NCCOCCOCCOCCOCCOCCOCCOCCOCCOCCOCCOCCNC(=O)CCCC(=O)Nc2ccc(-c3nnc(-c4ccccn4)nn3)nc2)CCN(CC(=O)[O-])CC1.[177Lu+3] [^177Lu-tetrazine 28]
^177Lu-tetrazine in Blood (LS174T tumor model [2]; [4]): 1.06 ± 0.34 % ID/gram | ^177Lu-tetrazine in Bone (LS174T tumor model [2]; [4]): 0.11 ± 0.02 % ID/gram | ^177Lu-tetrazine in Brain (LS174T tumor model [2]; [4]): 0.03 ± 0.02 % ID/gram | ^177Lu-tetrazine in Heart (LS174T tumor model [2]; [4]): 0.20 ± 0.02 % ID/gram | ^177Lu-tetrazine in Kidney (LS174T tumor model [2]; [4]): 1.73 ± 0.31 % ID/gram | ^177Lu-tetrazine in Liver (LS174T tumor model [2]; [4]): 0.61 ± 0.15 % ID/gram | ^177Lu-tetrazine in Lung (LS174T tumor model [2]; [4]): 0.32 ± 0.03 % ID/gram | ^177Lu-tetrazine in Muscle (LS174T tumor model [2]; [4]): 0.06 ± 0.03 % ID/gram | ^177Lu-tetrazine in Spleen (LS174T tumor model [2]; [4]): 0.30 ± 0.09 % ID/gram | ^177Lu-tetrazine in Tumor (LS174T tumor model [2]; [4]): 3.09 ± 0.01 % ID/gram | ^177Lu-tetrazine in Tumor (LS174T tumor model [2]; 1 day pretargeting with CC49-23a, listed as 177Lu-tetrazine): 3.09±0.01 % ID/gram | ^177Lu-tetrazine in Blood (LS174T tumor model [2]; [5]): 0.04 ± 0.01 % ID/gram | ^177Lu-tetrazine in Bone (LS174T tumor model [2]; [5]): 0.06 ± 0.01 % ID/gram | ^177Lu-tetrazine in Brain (LS174T tumor model [2]; [5]): 0.01 ± 0.00 % ID/gram | ^177Lu-tetrazine in Heart (LS174T tumor model [2]; [5]): 0.04 ± 0.00 % ID/gram | ^177Lu-tetrazine in Kidney (LS174T tumor model [2]; [5]): 1.73 ± 0.22 % ID/gram | ^177Lu-tetrazine in Liver (LS174T tumor model [2]; [5]): 0.31 ± 0.03 % ID/gram | ^177Lu-tetrazine in Lung (LS174T tumor model [2]; [5]): 0.13 ± 0.05 % ID/gram | ^177Lu-tetrazine in Muscle (LS174T tumor model [2]; [5]): 0.02 ± 0.01 % ID/gram | ^177Lu-tetrazine in Spleen (LS174T tumor model [2]; [5]): 0.20 ± 0.00 % ID/gram | ^177Lu-tetrazine in Tumor (LS174T tumor model [2]; [5]): 0.86 ± 0.39 % ID/gram | ^177Lu-tetrazine in Tumor (LS174T tumor model [2]; 4 days pretargeting with CC49-23a, listed as 177Lu-tetrazine): 0.86±0.39 % ID/gram | tumor-to-blood ratio (T/B) (LS174T tumor model [2]; ^177Lu-tetrazine administered 4 days after the mAb CC49-23a): 21.3±4.0 | tumor-to-blood ratio (T/B) (LS174T tumor model [2]; ^177Lu-tetrazine, mice pre-treated with CC49-23a 24 h before injection of the tetrazine): 3.1±1.0 | Tumor/Blood ratio, ^177Lu-tetrazine (LS174T tumor model [3]): 304 ± 80 | Tumor/Bone ratio, ^177Lu-tetrazine (LS174T tumor model [3]): 142 ± 59 | Tumor/Brain ratio, ^177Lu-tetrazine (LS174T tumor model [3]): 1674 ± 243 | Tumor/Heart ratio, ^177Lu-tetrazine (LS174T tumor model [3]): 187 ± 20 | Tumor/Kidney ratio, ^177Lu-tetrazine (LS174T tumor model [3]): 6 ± 2 | Tumor/Liver ratio, ^177Lu-tetrazine (LS174T tumor model [3]): 50 ± 10 | Tumor/Lung ratio, ^177Lu-tetrazine (LS174T tumor model [3]): 39 ± 8 | Tumor/Muscle ratio, ^177Lu-tetrazine (LS174T tumor model [3]): 328 ± 96 | Tumor/Spleen ratio, ^177Lu-tetrazine (LS174T tumor model [3]): 108 ± 22 | ^177Lu-tetrazine in Blood (LS174T tumor model [3]): 0.03 ± 0.00 % ID/gram | ^177Lu-tetrazine in Bone (LS174T tumor model [3]): 0.08 ± 0.04 % ID/gram | ^177Lu-tetrazine in Brain (LS174T tumor model [3]): 0.01 ± 0.00 % ID/gram | ^177Lu-tetrazine in Heart (LS174T tumor model [3]): 0.05 ± 0.01 % ID/gram | ^177Lu-tetrazine in Kidney (LS174T tumor model [3]): 1.50 ± 0.24 % ID/gram | ^177Lu-tetrazine in Liver (LS174T tumor model [3]): 0.19 ± 0.02 % ID/gram | ^177Lu-tetrazine in Lung (LS174T tumor model [3]): 0.24 ± 0.02 % ID/gram | ^177Lu-tetrazine in Muscle (LS174T tumor model [3]): 0.03 ± 0.00 % ID/gram | ^177Lu-tetrazine in Spleen (LS174T tumor model [3]): 0.09 ± 0.01 % ID/gram | ^177Lu-tetrazine in Tumor (LS174T tumor model [3]): 9.25 ± 2.16 % ID/gram

O=C(Nc1ccc(C(=O)ON2C(=O)CCC2=O)cc1)OC1CC/C=C/CCC1 (centres unmarked) [14a, (E-major)-2,5-dioxopyrrolidin-1-yl 4-(((cyclooct-4-en-1-yloxy)carbonyl)amino)benzoate]
Second order kinetic constant, No Spacer [1]: (14a) 11350 ± 550 M^−1s^−1

CC(C)(OC1CC/C=C/CCC1)C(=O)ON1C(=O)CCC1=O (single isomer, unassigned) [49a, (E-Major)-2,5-dioxopyrrolidin-1-yl 2-(cyclooct-4-en-1-yloxy)-2-methylpropanoate]
Second order kinetic constant [1]: 25080 ± 3865 M⁻¹ s⁻¹

O=C(ON1C(=O)CCC1=O)c1ccc(OC2CC/C=C/CCC2)cc1 (single isomer, unassigned) [52b, (E-Minor)-2,5-dioxopyrrolidin-1-yl 4-(cyclooct-4-en-1-yloxy)benzoate]
Second order kinetic constant [1]: 333300 ± 625 M⁻¹ s⁻¹

O=C(CCOCCOCCOCCOCCOCCOCCOCCOCCOCCOCCOCCOCCNC(=O)c1ccc(COC2CC/C=C/CCC2)cc1)ON1C(=O)CCC1=O (centres unmarked) [23b, (E-minor)-2,5-Dioxopyrrolidin-1-yl 1-(4-((cyclooct-4-en-1-yloxy)methyl)phenyl)-1-oxo-5,8,11,14,17,20,23,26,29,32,35,38-dodecaoxa-2-azahentetracontan-41-oate]
Second order kinetic constant, PEG10 Spacer [1]: (23b) 156400 ± 3100 M^−1s^−1

O=C(ON1C(=O)CCC1=O)C(OC1CC/C=C/CCC1)c1ccccc1 (single isomer, unassigned) [46b, (E-Minor)-2,5-dioxopyrrolidin-1-yl 2-(cyclooct-4-en-1-yloxy)-2-phenylacetate]
Second order kinetic constant [1]: 163200 ± 2871 M⁻¹ s⁻¹

O=C(COC1CC/C=C/CCC1)ON1C(=O)CCC1=O (single isomer, unassigned) [44a, (E-Major)-2,5-dioxopyrrolidin-1-yl 2-(cyclooct-4-en-1-yloxy)acetate]
Second order kinetic constant [1]: 20640 ± 485 M⁻¹ s⁻¹

O=C(Nc1ccc(C(=O)ON2C(=O)CCC2=O)cc1)OC1CC/C=C/CCC1 (centres unmarked) [14b, (E-minor)-2,5-dioxopyrrolidin-1-yl 4-(((cyclooct-4-en-1-yloxy)carbonyl)amino)benzoate]
Second order kinetic constant, No Spacer [1]: (14b) 66550 ± 8800 M^−1s^−1

O=C(ON1C(=O)CCC1=O)c1ccc(OC2CC/C=C/CCC2)cc1 (single isomer, unassigned) [52a, (E-Major)-2,5-dioxopyrrolidin-1-yl 4-(cyclooct-4-en-1-yloxy)benzoate]
Second order kinetic constant [1]: 20930 ± 3735 M⁻¹ s⁻¹
